Molecules are shown by their SMILES. Where two headings read alike, the source gives them in different places.

The values below come from patent US8383656B2, “Thiazolidinedione energy restriction-mimetic agents” (The Ohio State University Research Foundation, priority 2009, dated 2013).

The subject of data set [1] is LPS-stimulated IL-6 production in THP-1 macrophages. As to the kind of experiment: ELISA of LPS-stimulated IL-6 production in THP-1 macrophages. In kind it is cell-based, human. To be noted: 10 μM; for first-tier screening result (AMPK/mTOR activation status and IL-6/IL-6 receptor signaling): LPS-stimulated THP-1 macrophages; for inhibition at 10 µM: Homo sapiens, 6 h, LPS-stimulated THP-1, read-out: inhibition of IL-6 production. The protocol:
Cells and cell culture. THP-1 monocytic cells were purchased from the American Type Culture Collection (Rockville, Md.), and maintained with L-glutamine-containing RPMI 1640 supplemented with 10% fetal bovine serum (FBS), 0.25% glucose, 0.01% sodium pyruvate, 50 μM 2-mercaptoethanol, and 0.1 ml/ml penicillin/streptomycin/L-glutamine. Differentiation of THP-1 monocytes into macrophages was carried out by exposure to PMA (50 nM) in the aforementioned RPMI 1640 medium for 24 h. Colon-26 (C-26) adenocarcinoma cells were provided by a researcher at The Ohio State University. The C-26 cells were maintained in RPMI 1640 medium supplemented with 5% FBS and 1% penicillin/streptomycin.
ELISA. IL-6 release by differentiated THP-1 macrophages in response to 10 ng/ml of LPS was analyzed by using the IL-6 ELISA kit (Cayman Chemical Co.; Ann Arbor, Mich.) according to the manufacturer's instruction in triplicate. The effect of each test compound on LPS-stimulated IL-6 release is presented as percent inhibition and was calculated using the following formula: percentage inhibition=100%×{1−[(O.D. of sample−O.D. of control)/(O.D. of LPS−O.D. of control)]}.

A further data set has as its system THP-1 cells. As to the kind of experiment: MTT viability of THP-1 cells. In kind it is cell-based, human. To be noted: at the concentrations used for IL-6 ELISA (dose range b224, 10 μM b226, 1 μM b229).
Data set [2] has as its system LNCaP prostate cancer cells. As to the kind of experiment: MTT cell viability assay, LNCaP cells. Type of data set: cell-based. The note with it: Homo sapiens.
Description: The compounds were tested for their ability to decrease LNCaP prostate cancer cell viability as measured by the 3-(4,5-dimethylthiazol-2-yl)-2,5-diphenyltetrazolium bromide) (MTT) assay.
(§1) Cell viability was determined using the 3-(4,5-dimethylthiazol-2-yl)-2,5-diphenyltetrazolium bromide) (MTT) assay. LNCaP and MCF-7 cells were seeded in 96-well plates (5000 cells/well) and incubated in their respective culture media supplemented with 10% FBS for 24 h. […] Drug-containing medium was then replaced with 1×MTT (0.5 mg/mL in RPMI 1640), followed by incubation at 37° C. for 2 h. After removal of medium, the reduced MTT dye was solubilized in 200 μL/well DMSO, and absorbances were measured at 570 nm.
Data set [3] has as its system MCF-7 breast cancer cells. Briefly: MTT cell viability assay, MCF-7 cells. Type of data set: cell-based. The note with it: Homo sapiens, MCF7, 72 h, 10% FBS-supplemented medium, read-out: IC50 in inhibiting the viability of MCF-7 breast cancer cells.
Description: as §1
Data set [4] relates to human tumor cell lines of the cancer screening panel. As to the kind of experiment: NCI60 cell line screening. In kind it is cell-based. The note with it: 48 h, SRB; variety of cancer cell types. The protocol: The NCI60 screening method was carried out using the following methodology. The human tumor cell lines of the cancer screening panel were grown in RPMI 1640 medium containing 5% fetal bovine serum and 2 mM L-glutamine. The cells were then inoculated into 96 well microtiter plates in 100 μL at plating densities ranging from 5,000 to 40,000 cells/well depending on the doubling time of individual cell lines. After cell inoculation, the microtiter plates are incubated at 37° C., 5% CO2, 95% air and 100% relative humidity for 24 h prior to addition of the thiazolidinedione derivatives. […]
Following drug addition, the plates were incubated for an additional 48 h at 37° C., 5% CO2, 95% air, and 100% relative humidity. […] Bound stain is subsequently solubilized with 10 mM trizma base, and the absorbance was read on an automated plate reader at a wavelength of 515 nm. […] Using the seven absorbance measurements [time zero, (Tz), control growth, (C), and test growth in the presence of drug at the five concentration levels (Ti)], the percentage growth is calculated at each of the drug concentrations levels. Percentage growth inhibition is calculated as: [(Ti−Tz)/(C−Tz)]×100 for concentrations for which Ti>/=Tz [(Ti−Tz)/Tz]×100 for concentrations for which Ti<Tz.
Three dose response parameters were calculated for each experimental agent. […]

Data set [5] relates to [3H]-2-DG uptake into LNCaP cells. As to the kind of experiment: Glucose uptake assay ([3H]-2-DG). To be noted: OSU-CG12 at 5 and 10 μM, resveratrol at 50 and 100 μM, P<0.05. In kind it is cell-based. The protocol: After washing cells with PBS, glucose uptake was initiated by addition of 1 mL of PBS containing 1 μCi/mL [^3H]-2-DG (Perkin Elmer, Waltham, Mass.) and […] nonradioactive 2-DG. After 5 min, glucose uptake was terminated by extensive washing with PBS, and cells were solubilized in 0.1% SDS buffer. Aliquots were taken for measurements of radioactivity using a scintillation counter LS6500 (Beckman).

A further data set concerns cancer cells. The note with it: reported in literature; cited from earlier work.
In the next data set the test system is glucose metabolism. Briefly: In vitro potency in blocking glucose metabolism. Type of data set: cell-based.
The subject of data set [6] is normal prostate epithelial cells (PrECs).
Description: LNCaP hormone-responsive prostate cancer cells and MCF-7 ERα-positive breast cancer cells were obtained from the American Type Culture Collection (Manassas, Va.) and maintained with 10% fetal bovine serum (FBS)-supplemented RPMI 1640 medium and F12/DMEM medium, respectively. Nonmalignant prostate epithelial cells (PrEC) were maintained in prostate epithelial growth medium (PrEGM) (Lonza Inc., Walkersville, Md.). All cells were cultured at 37° C. in a humidified incubator containing 5% CO2. […] Glucose-free RPMI 1640 medium was purchased from Invitrogen (Carlsbad, Calif.). 2-DG, resveratrol, 3-methyladenine (3-MA), nicotinamide and splitomicin were purchased from Sigma-Aldrich (St. Louis, Mo.). The AMPK inhibitor Compound C and cycloheximide were obtained from Calbiochem (San Diego, Calif.). These agents were added to medium with a final DMSO concentration of 0.1%.
as §1
In data set [7] the test system is Sirt1 gene expression in LNCaP cells. As to the kind of experiment: Time course of Sirt1 expression in LNCaP cells (Western blot/RT-PCR). Type of data set: cell-based. The note with it: OSU-CG12 10 μM, 2-DG 10 mM. The protocol:
Total RNA was isolated from drug-treated LNCaP cells using the RNeasy mini kit (Qiagen, Valencia, Calif.), and then reverse-transcribed to cDNA using the Omniscript RT Kit (Qiagen) according to manufacturer's instructions. PCR products were separated electrophoretically in 1% agarose gels and visualized by ethidium bromide staining.
Transfections were performed by electroporation using Nucleofector kit R of the Amaxa Nucleofector system (Amaxa Biosystems, Cologne, Germany). LNCaP cells were transfected with the following plasmids or siRNA: WT- and H363Y-Flag-Sirt1 (DN-Sirt1), WT- and K45R-Myc-AMPK (DN-AMPK), GFP-LC3, TSC2 shRNA, and DDIT3 siRNA (GADD153). […] For the fluorescent microscopic analysis, LNCaP cells transfected with the GFP-LC3 expression plasmid or with scrambled or TSC2 shRNA were treated as indicated for 36 h. After cells were fixed with 3.7% formaldehyde at room temperature for 20 min, nuclear counterstaining was performed using a 4,6-diamidino-2-phenylindole (DAPI)-containing mounting medium (Vector Laborotaries, Burlingame, Calif.) before examination. Images were observed using a Nikon microscope (Eclipse TE300).

Where [8] appears, read: LNCaP, MTT, 72 h, 10% FBS-supplemented medium, read-out: IC50 in inhibiting the viability of LNCaP prostate cancer cells.

In the case of `CC1(CN2C(=O)SC(=Cc3ccc(NS(=O)(=O)c4ccc([N+](=O)[O-])cc4)cc3)C2=O)CCCCC1` [Compound 54, N-{4-[3-(1-Methyl-cyclohexylmethyl)-2,4-dioxo-thiazolidin-5-ylidenemethyl]-phenyl}-4-nitro-benzenesulfonamide], in data set [1], the “first-tier screening result (AMPK/mTOR activation status and IL-6/IL-6 receptor signaling)” value was “active”; the inhibition at 10 µM was more than 80%.
With `CC1(COc2ccc(CC3SC(=O)NC3=O)cc2)CCCCC1` (stereo not shown) [ciglitazone], the “effect on viability of THP-1 cells” value in the data set with THP-1 cells was “neither agent inhibited the viability of THP-1 cells”. The 50% inhibitory concentration (IC50) in data set [2] (setting [8]) came out at 70 µM; in data set [3], 42 µM.
Take `CCC(CC)CN1C(=O)S/C(=C\c2ccc(O)c(C(F)(F)F)c2)C1=O` [OSU-CG5, (Z)-3-(2-Ethyl-butyl)-5-(4-hydroxy-3-trifluoromethyl-benzylidene)-thiazolidine-2-4-dione]: the “antitumor potency in NCI 60 cell line screening” value in [4] is “significantly antitumor potency”.
Take `Oc1ccc(C=Cc2cc(O)cc(O)c2)cc1` [resveratrol]: the “inhibition of glucose uptake” value in [5] is “significantly inhibit glucose uptake”. The IC50 in [2] (setting [8]) was 110 µM; in data set [2] (summary over LNCaP and MCF-7 cells, read-out: IC50 in suppressing cancer cell growth) it was 60 to 110 µM; in the data set on glucose metabolism, not below 50 µM; in data set [3], 60 µM. For the same compound, the “dose range inducing autophagy in cancer cells” value with cancer cells is 50 to 100 µM. In addition, the “cytotoxicity to normal prostate epithelial cells (PrECs)” value in data set [6] is on record as “low cytotoxicity”.
Turning to `Cc1c(C)c2c(c(C)c1OCCCC#N)CCC(C)(COc1ccc(C=C3SC(=O)NC3=O)cc1Br)O2` (stereo not shown) [Compound 21, 4-{2-[2-Bromo-4-(2,4-dioxo-thiazolidin-5-ylidenemethyl)-phenoxymethyl]-2,5,7,8-tetramethyl-chroman-6-yloxy}-butyronitrile], in [1], the “first-tier screening result (AMPK/mTOR activation status and IL-6/IL-6 receptor signaling)” value was “active”; the inhibition at 10 µM was more than 80%.
For the compound `CCCN1C(=O)SC(=Cc2ccc(O)c(C(F)(F)F)c2)C1=O` [Compound 44, 5-(4-Hydroxy-3-trifluoromethyl-benzylidene)-3-propyl-thiazolidine-2,4-dione], the inhibition at 10 µM in data set [1] is more than 80%.
With `O=CC[C@@H](O)[C@H](O)[C@H](O)CO` [2-DG, 2-deoxyglucose], the “duration of transient transcriptional activation of Sirt1 gene expression” value in [7] was 4 h. Besides, the IC50 was 5500 µM in data set [2] (setting [8]), not below 4000 µM with glucose metabolism and 4200 µM in [3]. Besides, in the data set with cancer cells, the “dose range inducing autophagy in cancer cells” value is 5000 to 25000 µM. In addition, the “cytotoxicity to normal prostate epithelial cells (PrECs)” value in data set [6] is reported as “low cytotoxicity”.
With `Cc1c(C)c2c(c(C)c1O)CCC(C)(COc1ccc(CC3SC(=O)NC3=O)cc1)O2` (stereo not shown) [troglitazone], the half-inhibitory concentration (IC50) in data set [2] (setting [8]) and in data set [3] was 70 µM each time.
With `C=CCOc1c(C)c(C)c2c(c1C)CCC(C)(COc1ccc(/C=C3\SC(=O)NC3=O)cc1Br)O2` (stereo not shown) [STG28], the IC50 in [2] (setting [8]) stood at 12 µM; in [3], 11 µM.
`COc1ccc(S(=O)(=O)Nc2ccc(C=C3SC(=O)N(CC4(C)CCCCC4)C3=O)cc2)cc1` [Compound 49, 4-Methoxy-N-{4-[3-(1-methyl-cyclohexylmethyl)-2,4-dioxo-thiazolidin-5-yli-denemethyl]-phenyl}-benzenesulfonamide]: the “first-tier screening result (AMPK/mTOR activation status and IL-6/IL-6 receptor signaling)” value in data set [1] is “active”.
For the compound `CCOc1c(C)c(C)c2c(c1C)CCC(C)(COc1ccc(C=C3SC(=O)NC3=O)cc1Br)O2` (stereo not shown) [Compound 8, 5-[3-Bromo-4-(6-ethoxy-2,5,7,8-tetramethyl-chroman-2-ylmethoxy)-benzylidene]-thiazolidine-2,4-dione], in data set [1], the “first-tier screening result (AMPK/mTOR activation status and IL-6/IL-6 receptor signaling)” value is “active”; the inhibition at 10 µM is more than 80%.
Taken in the same sequence, the figures for `CCCCOc1c(C)c(C)c2c(c1C)CCC(C)(COc1ccc(C=C3SC(=O)NC3=O)cc1OC)O2` (stereo not shown) [Compound 12, 5-[4-(6-Butoxy-2,5,7,8-tetramethyl-chroman-2-ylmethoxy)-3-methoxy-benzylidene]-thiazolidine-2,4-dione] were “active” and more than 80%.
